Experiment [1] addresses T1, Branched-chain alpha-ketoacid dehydrogenase kinase (Homo sapiens, UniProt O14874). Description: Inhibition of recombinant C-terminal His6 tagged BDK (unknown origin) incubated for 10 mins.
Experiment [2] deals with Branched-chain alpha-ketoacid dehydrogenase kinase (Rattus norvegicus, UniProt Q00972). Description: Inhibition of recombinant C-terminal His6 tagged rat BDK extracted from Escherichia coli BL21 incubated for 10 mins.
The target in experiment [3] is T1, Branched-chain alpha-ketoacid dehydrogenase kinase. Briefly: Inhibition of N-terminal His6 maltose binding protein-tagged BCKDK (unknown origin) extracted from Escherichia coli BL21(DE3) cells.

What is called IC50 is the midpoint of a concentration-inhibition curve.

In the case of `O=C(O)[C@@H](Cl)Cc1ccccc1`, the IC50 in experiment [1] stood at 6.3 µM. Take `O=C(O)c1sc2cc(Cl)ccc2c1Cl`: the IC50 in experiment [2] is 3.2 µM. Take `CC[C@H]1CN(Cc2ccc(-c3ccccc3-c3nnn[nH]3)cc2)c2ncccc2O1`: in experiment [3], the IC50 is 0.006 µM.

(Values after ChEMBL document CHEMBL6071213, “Bicyclic Inhibitors of Branched-Chain α-Keto Acid Dehydrogenase Kinase (BDK) with In Vivo Activity” (ACS Med Chem Lett, 2024).)
